Key:
[1] = test system: Male obese-diabetic viable yellow (A^vy) mice; test: Serum/plasma triglycerides after 14 days in the same feeding study; type: in vivo; details: untreated about 4 mmol/mL
Protocol: (§1) Male obese-diabetic viable yellow (A^vy) mice were divided into two groups of 6 each. One group was fed repelletized Purina 5008 Chow and the second group was fed a repelletized chow consisting of Purina 5008 Chow, admixed with varying doses of the candidate compound. Blood samples were taken before the experiment was initiated and 14 days after initiation. Body weight and food consumption were monitored. The blood glucose level after 14 days of treatment was measured and recorded as a percent of the initial value, compared to the untreated control (first) group. The results are presented in the table below and include the dose of the candidate compound as a weight percent of the amount incorporated into the diet. The positive control is a known hypoglycemic agent (J. Med. Chem. 35:2617, 1992) administered in the same way as a compound of the present invention.
In the same feeding study described above, plasma triglycerides were measured against a glycerol standard using reagents from Sigma Kit No. 339 (St. Louis, Mo.), adapted for assay on the Monarch System (Instrumentation Laboratory, Lexington, Mass.). Day 14 levels are recorded below as mM of triglycerides per mL. Serum triglyceride values for untreated animals averaged about 4 mmol/mL.

[2] = test system: Male obese-diabetic viable yellow (A^vy) mice; test: Serum/blood glucose after 14 days of feeding compound admixed in chow; type: in vivo
Protocol: as §1

[3] = dose 0.03 (mg/100 g food) in diet
[4] = dose 0.01 (mg/100 g food) in diet

| Compound | melting point | Serum Triglyceride after 14 days [1, 3] [mM] | Serum Glucose after 14 days % of day 0 value [2, 3] | other results |
| --- | --- | --- | --- | --- |
| CN(C(=O)OCc1ccccc1)[C@@H](Cc1ccc(OCCc2coc(-c3ccccc3)n2)cc1)C(=O)O [Example No. 8, O-[2-(2-Phenyl-4-oxazolyl)ethyl]-N-methyl-N-CBZ-L-tyrosine] | – | 3.6 | – | Serum Glucose after 14 days % of day 0 value ([2]; dose 0.06 (mg/100 g food) in diet): 75 % of day 0 value |
| O=C(NC(Cc1cccc(OCCc2coc(-c3ccccc3)n2)c1)C(=O)O)OCc1ccccc1 (stereo not drawn) [Example No. 21, α-(3-[2-(2-Phenyl-4-oxazolyl)ethoxy]benzyl)-N-CBZ glycine] | 149 to 151 °C (dec.) | 1.4 | 48 % of day 0 value | – |
| N[C@@H](Cc1ccc(OCCc2coc(-c3ccccc3)n2)cc1)C(=O)N(O)C(=O)OCc1ccccc1 [Example 11, O-[2-(2-Phenyl-4-oxazolyl)ethyl]-N-CBZ-L-tyrosine hydroxamic acid] | 198 to 199 °C | – | – | – |
| NC(=O)[C@H](Cc1ccc(OCCc2coc(-c3ccccc3)n2)cc1)NC(=O)OCc1ccccc1 [Example No. 10, O-[2-(2-Phenyl-4-oxazolyl)ethyl]-N-CBZ-L-tyrosine carboxamide] | – | – | 88 % of day 0 value | – |
| O=C(COc1ccccc1)N[C@@H](Cc1ccc(OCCc2coc(-c3ccccc3)n2)cc1)C(=O)O [Example 12, O-[2-(2-Phenyl-4-oxazolyl)ethyl]-N-phenoxyacetyl-L-tyrosine] | 94 to 97 °C | – | – | – |
| 4-[2-(2-Phenyl-4-oxazolyl)ethoxy]benzyl-N-CBZ-L-serine [Example No. 7] | – | 0.4 | 34 % of day 0 value | – |
| Cc1ccc(C(=O)N[C@@H](Cc2ccc(OCCc3coc(-c4ccccc4)n3)cc2)C(=O)O)cc1 [Example No. 6, O-[2-(2-Phenyl-4-oxazolyl)ethyl]-N-4-methylbenzoyl-L-tyrosine] | 180 to 182 °C | 2.3 | 65 % of day 0 value | – |
| O=C(N[C@@H](Cc1ccc(OCCc2coc(-c3ccccc3)n2)cc1)C(=O)O)OCc1ccccc1 [Example No. 1, O-[2-(2-Phenyl-4-oxazolyl)ethyl]-N-CBZ-L-tyrosine] | 105 to 111 °C | 1.3 | 49 % of day 0 value | – |
| O=C(N[C@@H](Cc1ccc(OCCc2coc(-c3ccccc3)n2)cc1)C(=O)O)c1ccccc1 [Example No. 4, O-[2-(2-Phenyl-4-oxazolyl)ethyl]-N-BZ-L-tyrosine] | – | 1.5 | 60 % of day 0 value | – |
| CC(C)(Oc1ccc(Cl)cc1)C(=O)O [clofibric acid, reference compound] | – | – | – | Serum Triglyceride after 14 days ([1]; dose 0.10 (mg/100 g food) in diet): 1.9 mM |
| Cc1oc(-c2ccccc2)nc1CCOc1ccc(CC(NC(=O)OCc2ccccc2)C(=O)O)cc1 (racemic) [Example No. 9, O-[2-(5-Methyl-2-phenyl-4-oxazolyl)ethyl]-N-CBZ-D,L-tyrosine] | 142 to 143 °C | 2.5 | 66 % of day 0 value | – |

The next lines start with results.

| melting point | Compound | Serum Triglyceride after 14 days [1, 3] [mM] | Serum Glucose after 14 days % of day 0 value [2, 3] | other results |
| --- | --- | --- | --- | --- |
| 55 to 57 °C | O=C(N[C@@H](COCc1cccc(OCCc2coc(-c3ccccc3)n2)c1)C(=O)O)OCc1ccccc1 [Example No. 24, O-(3-(2-(2-Phenyl-4-oxazolyl)ethoxy]benzyl)-N-CBZ serine] | – | – | Serum Triglyceride after 14 days [1, 4]: 0.3 mM; Serum Glucose after 14 days % of day 0 value [2, 4]: 88 % of day 0 value |
| 75 to 95 °C | Cc1oc(-c2ccccc2)nc1CCOc1ccc(C[C@H](NC(=O)OCc2ccccc2)C(=O)O)cc1 [Example No. 22, O-[2-(5-Methyl-2-phenyl-4-oxazolyl)ethyl]-N-CBZ-L-tyrosine] | – | 53 % of day 0 value | – |
| 132.5 to 135.5 °C | COc1ccc(COC(=O)N[C@@H](Cc2ccc(OCCc3coc(-c4ccccc4)n3)cc2)C(=O)O)cc1 [Example 18, O-[2-(2-Phenyl-4-oxazolyl)ethyl]-N-(4-methoxybenzyloxycarbonyl)-L-tyrosine] | – | – | – |
| 196.5 to 198 °C | O=C(NCc1ccccc1)N[C@@H](Cc1ccc(OCCc2coc(-c3ccccc3)n2)cc1)C(=O)O [Example 20, O-[2-(2-Phenyl-4-oxazolyl)ethyl]-N-(N′-Benzylcarbamoyl)-L-tyrosine] | – | – | – |
| 177 to 180.5 °C | O=C(N[C@@H](Cc1ccc(OCCc2coc(-c3ccccc3)n2)cc1)C(=O)O)OCc1ccc(C(F)(F)F)cc1 [Example 17, O-[2-(2-Phenyl-4-oxazolyl)ethyl]-N-(4-trifluoromethylbenzyloxycarbonyl)-L-Tyrosine] | – | – | – |
| 158 to 161 °C | O=C(N[C@@H](Cc1ccc(OCCc2coc(-c3ccccc3)n2)cc1)C(=O)O)c1ccc(Cl)cc1 [Example 13, O-[2-(2-Phenyl-4-oxazolyl)ethyl]-N-4-chlorobenzoyl-L-tyrosine] | – | – | – |
| 231 to 235 °C | N[C@@H](Cc1ccc(OCCc2coc(-c3ccccc3)n2)cc1)C(=O)O [Example 3, O-[2-(2-Phenyl-4-oxazolyl)ethyl]-L-tyrosine] | – | – | – |
| 204 to 207 °C | O=C(N[C@@H](Cc1ccc(OCCc2coc(-c3ccccc3)n2)cc1)C(=O)[O-])OCc1ccccc1.[Na+] [Example No. 2, O-[2-(2-Phenyl-4-oxazolyl)ethyl]-N-CBZ-L-tyrosine, sodium salt] | 3.3 | 67 % of day 0 value | – |
| 141 to 143 °C | O=C(O)[C@H](Cc1ccc(OCCc2coc(-c3ccccc3)n2)cc1)NS(=O)(=O)Cc1ccccc1 [Example 14, O-[2-(2-Phenyl-4-oxazolyl)ethyl]-N-phenylmethylsulfonyl-L-tyrosine] | – | – | – |
| 146 to 151 °C | O=C(Cc1ccccc1)N[C@@H](Cc1ccc(OCCc2coc(-c3ccccc3)n2)cc1)C(=O)O [Example No. 5, O-[2-(2-Phenyl-4-oxazolyl)ethyl]-N-phenylacetyl-L-tyrosine] | – | 57 % of day 0 value | – |
| 173 to 176 °C | O=C(N[C@@H](Cc1ccc(OCCc2coc(-c3ccccc3)n2)cc1)C(=O)O)OCc1ccc(Br)cc1 [Example 16, O-[2-(2-Phenyl-4-oxazolyl)ethyl]-N-(4-bromobenzyloxycarbonyl)-L-tyrosine] | – | – | – |
| 80 to 83 °C | O=C(N[C@@H](Cc1ccc(OCCc2cccc3ccccc23)cc1)C(=O)O)OCc1ccccc1 [Example 15, O-[2-(1-Naphthyl)ethyl]-N-CBZ-L-tyrosine] | – | – | – |
| 86 to 89 °C | CCCCc1ccc(COC(=O)N[C@@H](Cc2ccc(OCCc3coc(-c4ccccc4)n3)cc2)C(=O)O)cc1 [Example 19, O-[2-(2-Phenyl-4-oxazolyl)ethyl]-N-(4-n-Butylbenzyloxycarbonyl)-L-tyrosine] | – | – | – |

Reference: patent publication US6541497B1, “Hypoglycemic and hypolipidemic compounds” (Eli Lilly and Company, priority 1996, dated 2003)
